Results: patent US9670487B2, “Cationic lipids for oligonucleotide delivery” (SIRNA THERAPEUTICS, INC., priority 2010, dated 2017)

How the values were obtained:
[1] = system: mRNA transcript for the firefly (Photinus pyralis) luciferase gene; experiment: In vivo efficacy in luciferase mouse model (LNP/RDV with Luc siRNA); details: for inhibition at 0.3 mg/kg: Mus musculus, LNPs prepared from the compound with Luc siRNA, 0.3 mg Kg^-1, tail vein, imaged 48 hours post dose, relative to pre-dose luminescence, read-out: Average % Inhibition of Bioluminescence
Experimental: LNPs utilizing the compounds of the instant invention, in the nominal compositions described immediately above, were evaluated for in vivo efficacy and induction of inflammatory cytokines in a luciferase mouse model. The siRNA targets the mRNA transcript for the firefly (Photinus pyralis) luciferase gene (Accession # M15077). […] The in vivo luciferase model employs a transgenic mouse in which the firefly luciferase coding sequence is present in all cells. ROSA26-LoxP-Stop-LoxP-Luc (LSL-Luc) transgenic mice licensed from the Dana Farber Cancer Institute are induced to express the Luciferase gene by first removing the LSL sequence with a recombinant Ad-Cre virus (Vector Biolabs). Due to the organo-tropic nature of the virus, expression is limited to the liver when delivered via tail vein injection. Luciferase expression levels in liver are quantitated by measuring light output, using an IVIS imager (Xenogen) following administration of the luciferin substrate (Caliper Life Sciences). Pre-dose luminescence levels are measured prior to administration of the RDVs. Luciferin in PBS (15 mg/mL) is intraperitoneally (IP) injected in a volume of 150 uL. After a four minute incubation period mice are anesthetized with isoflurane and placed in the IVIS imager. The RDVs (containing siRNA) in PBS vehicle were tail vein injected n a volume of 0.2 mL. Final dose levels ranged from 0.3 to 3 mg/kg siRNA. PBS vehicle alone was dosed as a control. Three hours post dose, mice were bled retro-orbitally to obtain plasma for cytokine analysis. Mice were imaged 48 hours post dose using the method described above. Changes in luciferin light output directly correlate with luciferase mRNA levels and represent an indirect measure of luciferase siRNA activity. In vivo efficacy results are expressed as % inhibition of luminescence relative to pre-dose luminescence levels. Plasma cytokine levels were determined using the SearchLight multiplexed cytokine chemiluminescent array (Pierce/Thermo). Systemic administration of the luciferase siRNA RDVs decreased luciferase expression in a dose dependant manner. […]

[2] = system: mRNA transcript for the ApoB gene; experiment: Rhesus monkey in vivo efficacy: serum LDL-C as surrogate marker of ApoB mRNA reduction; parameters: species or system Macaca mulatta (rhesus) monkeys; details: RDVs containing the compound and ApoB siRNA; 1 mg/kilogram siRNA intravenous; 2-12 days post administration; FIG. 6
Experimental: LNPs utilizing compound 34 in the nominal compositions described above, were evaluated for in vivo efficacy in male or female Macaca mulatta (rhesus) monkeys. The siRNA targets the mRNA transcript for the ApoB gene (Accession # XM 001097404). […] The RDVs (containing siRNA) in PBS vehicle were administered by intravenous injection in the saphenous vein at an injection rate of 20 mL/minute to a dose level of 1 mg/kilogram siRNA. The injection volumes were from 1.9 to 2.1 mL/kilogram and monkeys ranged in weight from 2.5 to 4.5 kilograms. The RDV or PBS control were administered to three monkeys. At multiple days post dose, 1 mL blood samples were drawn from the femoral artery for serum chemistry analysis. Monkeys were fasted overnight prior to blood draws. As a measure of efficacy, LDL-C was monitored as a downstream surrogate marker of ApoB mRNA reduction. At 2-12 days post systemic administration of RDVs containing compound 34, serum levels of LDL-C were reduced to less than 30% of pre-dose levels (FIG. 6).

[3] = Rat in vivo tolerability: serum ALT and AST after LNP dosing; details: Sprague-Dawley female rats; RDV with ApoB siRNA; tail vein; 24 hours after dosing; FIG. 4
Experimental: Six hours post dose, food is removed from the cages. Animal necropsy is performed 24 hours after LNP dosing. Rats are anesthetized under isoflurane for 5 minutes, then maintained under anesthesia by placing them in nose cones continuing the delivery of isoflurane until ex-sanguination is completed. Blood is collected from the vena cava using a 23 gauge butterfly venipuncture set and aliquoted to serum separator vacutainers for serum chemistry analysis. Punches of the excised caudate liver lobe are taken and placed in RNALater (Ambion) for mRNA analysis. Preserved liver tissue was homogenized and total RNA isolated using a Qiagen bead mill and the Qiagen miRNA-Easy RNA isolation kit following the manufacturer's instructions. Liver ApoB mRNA levels were determined by quantitative RT-PCR. Message was amplified from purified RNA utilizing a rat ApoB commercial probe set (Applied Biosystems Cat # RN01499054_ml). The PCR reaction was performed on an ABI 7500 instrument with a 96-well Fast Block. The ApoB mRNA level is normalized to the housekeeping PPIB (NM 011149) mRNA. PPIB mRNA levels were determined by RT-PCR using a commercial probe set (Applied Biosystems Cat. No. Mm00478295_ml). Results are expressed as a ratio of ApoB mRNA/PPIB mRNA. All mRNA data is expressed relative to the PBS control dose. […]

## CCCCC/C=C\C/C=C\CCCCCCCCOC(CN(C)C)OCCCCCCCC/C=C\C/C=C\CCCCC [Compound 2, N,N-dimethyl-2,2-bis[(9Z,12Z)-octadeca-9,12-dien-1-yloxy]ethanamine]
[1]
  inhibition at 0.3 mg/kg: 64%
[1]; mice dosed with RDVs containing the compound and Luc siRNA, Table 1
  Efficacy compared with RDV containing octyl-CLinDMA cationic lipid, Compound 4: Greater efficacy

## CCC/C=C\CCCCCCCOC(CN1CCCC1)OCCCCCCCC/C=C\C/C=C\CCCCC (centres unmarked) [Compound 34, 1-{2-[(8Z)-dodec-8-en-1-yloxy]-2-[(9Z,12Z)-octadeca-9,12-dien-1-yloxy]ethyl}pyrrolidine]
[2]
  Serum levels of LDL-C: less than 30 % of pre-dose levels

## CCCCC/C=C\C/C=C\CCCCCCCCOC(CN(C)C)OCCCCCCCC (centres unmarked) [Compound 31, N,N-dimethyl-2-[(9Z,12Z)-octadeca-9,12-dien-1-yloxy]-2-(octyloxy)ethanamine]
[3]
  Tolerability (serum ALT and AST) compared with RDV containing DLinKC2DMA cationic lipid 64: better tolerability

## CCCCC/C=C\C/C=C\CCCCCCCCOCC(CN(C)C)OCCCCCCCCO[C@H]1CC[C@@]2(C)C(=CC[C@H]3[C@@H]4CC[C@H]([C@H](C)CCCC(C)C)[C@@]4(C)CC[C@@H]32)C1 (some centres unmarked) [Compound 4, S-Octyl CLinDMA, reference compound]
[1]
  inhibition at 0.3 mg/kg: 55%
